What was measured:
Assay type in all cases: cell-based, human
HCT-116 cells [1] = assay: Proliferation inhibition assay of cancer cells (Test Example 1), HCT-116; settings: read-out: IC50 (μM) HCT, concentration for 50% inhibition of cell proliferation (Bulk IC50 value)
Procedure: (§1) HCT-116 cells (derived from human colon adenocarcinoma), HT-29 cells (derived from human colon cancer), and FaDu cells (derived from human hypopharynx cancer) were obtained from American Type Culture Collection (ATCC). […] After cells were seeded at 300-600 cells/well onto black μClear-plate 384 well (Greiner bio-one Cat. No. 781091), a test substance was added such that the final concentration of DMSO is 0.1%, and cultured for 4 days. […] A test shown in Test example 1 was carried out for compounds obtained in the Examples.

FaDu cells [2] = assay: Inhibition assay of cancer cell sphere-forming ability (Test Example 2), FaDu; settings: read-out: IC50 (μM) FaDu, concentration for 50% inhibition of cell proliferation (Sphere IC50 value)
Procedure: (§2) HCT-116 cells (derived from human colon adenocarcinoma), HT-29 cells (derived from human colon cancer), FaDu cells (derived from human hypopharynx cancer) were obtained from American Type Culture Collection (ATCC). […] HCT-116 cells, HT-29 cells, and FaDu cells were seeded onto 384 Well Black Clear Bottom Ultra-Low Attachment Microplate (Corning Cat. […] A test substance was added so that the final concentration of DMSO is 0.1%, and then cultured for 4 days. […] A test shown in Test example 2 was carried out for compounds obtained in the Examples.

HT-29 cells [3] = assay: Proliferation inhibition assay of cancer cells (Test Example 1), HT-29; settings: read-out: IC50 (μM) HT, concentration for 50% inhibition of cell proliferation (Bulk IC50 value)
Procedure: as §1

HCT-116 cells [4] = assay: Inhibition assay of cancer cell sphere-forming ability (Test Example 2), HCT-116; settings: read-out: IC50 (μM) HCT, concentration for 50% inhibition of cell proliferation (Sphere IC50 value)
Procedure: as §2

HT-29 cells [5] = assay: Inhibition assay of cancer cell sphere-forming ability (Test Example 2), HT-29; settings: read-out: IC50 (μM) HT, concentration for 50% inhibition of cell proliferation (Sphere IC50 value)
Procedure: as §2

FaDu cells [6] = assay: Proliferation inhibition assay of cancer cells (Test Example 1), FaDu; settings: read-out: IC50 (μM) FaDu, concentration for 50% inhibition of cell proliferation (Bulk IC50 value)
Procedure: as §1

[7] = Homo sapiens, HCT-116, 96 h, HCT-116 cells, cultured for 4 days, Cell Titer-Glo
[8] = Homo sapiens, FaDu, 96 h, FaDu cells, Ultra-Low Attachment plate, serum-free DMEM/F12 with B27, EGF, bFGF, insulin, 4 days, Cell Titer-Glo
[9] = Homo sapiens, HT-29, 96 h, HT-29 cells, cultured for 4 days, Cell Titer-Glo
[10] = Homo sapiens, HCT-116, 96 h, HCT-116 cells, Ultra-Low Attachment plate, serum-free DMEM/F12 with B27, EGF, bFGF, insulin, 4 days, Cell Titer-Glo
[11] = Homo sapiens, HT-29, 96 h, HT-29 cells, Ultra-Low Attachment plate, serum-free DMEM/F12 with B27, EGF, bFGF, insulin, 4 days, Cell Titer-Glo
[12] = Homo sapiens, FaDu, 96 h, FaDu cells, cultured for 4 days, Cell Titer-Glo
[13] = HT-29 cells, cultured for 4 days, Cell Titer-Glo
[14] = HT-29 cells, Ultra-Low Attachment plate, serum-free DMEM/F12 with B27, EGF, bFGF, insulin, 4 days, Cell Titer-Glo

Row | SMILES | IC50 (HCT-116 cells [1]; [7]) | IC50 (FaDu cells [2]; [8]) | IC50 (HT-29 cells [3]; [9]) | IC50 (HCT-116 cells [4]; [10]) | IC50 (HT-29 cells [5]; [11]) | IC50 (FaDu cells [6]; [12]) | other results
1 | CCN(Cc1cc2c(o1)C(=O)c1cccnc1C2=O)S(=O)(=O)CC(C)C [Example 10, N-[(4,9-dioxo-4,9-dihydrofuro[2,3-g]quinolin-2-yl)methyl]-N-ethyl-2-methylpropane-1-sulfonamide] | 0.5 µM | 0.09 µM | 6.14 µM | 0.38 µM | 0.53 µM | 0.5 µM | –
2 | CCN(Cc1ccncc1)Cc1cc2c(s1)C(=O)c1cccnc1C2=O [Example 8, 2-{[ethyl(pyridin-4-ylmethyl)amino]methyl}thieno[2,3-g]quinoline-4,9-dione] | – | – | – | – | – | – | IC50 (HCT-116 cells [1]; HCT-116 cells, cultured for 4 days, Cell Titer-Glo): 0.38 µM; IC50 (FaDu cells [2]; FaDu cells, Ultra-Low Attachment plate, serum-free DMEM/F12 with B27, EGF, bFGF, insulin, 4 days, Cell Titer-Glo): 0.32 µM; IC50 (HT-29 cells [3]; [13]): 0.83 µM; IC50 (HCT-116 cells [4]; HCT-116 cells, Ultra-Low Attachment plate, serum-free DMEM/F12 with B27, EGF, bFGF, insulin, 4 days, Cell Titer-Glo): 0.41 µM; IC50 (HT-29 cells [5]; [14]): 0.6 µM; IC50 (FaDu cells [6]; FaDu cells, cultured for 4 days, Cell Titer-Glo): 0.37 µM
3 | O=C1c2cc(CN3CCOCC3)sc2C(=O)c2cccnc21 [Example 4, 2-(morpholin-4-ylmethyl)thieno[2,3-g]quinoline-4,9-dione] | 0.57 µM | 0.34 µM | 0.68 µM | 0.55 µM | 0.63 µM | 0.46 µM | –
4 | CCOC(=O)N(CC)Cc1cc2c(o1)C(=O)c1cccnc1C2=O [Example 11, ethyl [(4,9-dioxo-4,9-dihydrofuro[2,3-g]quinolin-2-yl)methyl]ethylcarbamate] | 0.49 µM | 0.28 µM | 3.85 µM | 0.46 µM | 0.71 µM | 0.45 µM | –
5 | O=C1c2cnccc2C(=O)c2sc(COCc3ccccc3)cc21 [Example 18, 2-[(benzyloxy)methyl]thieno[2,3-g]isoquinoline-4,9-dione] | 1 µM | 0.63 µM | > 10 µM | 5.71 µM | > 10 µM | 0.57 µM | –
6 | O=C1c2cc(C(=O)N3CCOCC3)sc2C(=O)c2nccnc21 [Example 57, 7-(morpholin-4-ylcarbonyl)thieno[2,3-g]quinoxaline-5,9-dione] | 5.71 µM | 5.65 µM | > 10 µM | 4.97 µM | > 10 µM | 8.21 µM | –
7 | CC(O)c1cc2c(o1)C(=O)c1sccc1C2=O (stereo not drawn) [Example 53, 2-(1-hydroxyethyl)thieno[3,2-f][1]benzofuran-4,8-dione] | 0.55 µM | 0.45 µM | 0.68 µM | 0.56 µM | 0.59 µM | 0.64 µM | –
8 | O=C1c2ccncc2C(=O)c2sc(CNCC(F)F)cc21 [Example 35, 2-{[(2,2-Difluoroethyl)amino]methyl}thieno[3,2-g]isoquinoline-4,9-dione] | – | – | – | – | – | – | IC50 (HCT-116 cells [1]; Homo sapiens, HCT-116, 96 h): 0.08 µM; IC50 (FaDu cells [2]; Homo sapiens, FaDu, 96 h): 0.04 µM; IC50 (HT-29 cells [3]; Homo sapiens, HT-29, 96 h): 0.6 µM; IC50 (HCT-116 cells [4]; Homo sapiens, HCT-116, 96 h): 0.27 µM; IC50 (HT-29 cells [5]; Homo sapiens, HT-29, 96 h): 0.39 µM; IC50 (FaDu cells [6]; Homo sapiens, FaDu, 96 h): 0.05 µM
9 | COC(C)c1cc2c(s1)C(=O)c1ncccc1C2=O (stereo not drawn) [Example 38, 2-(1-methoxyethyl)thieno[3,2-g]quinoline-4,9-dione] | 0.55 µM | 0.28 µM | 0.66 µM | 0.55 µM | 0.59 µM | 0.44 µM | –
10 | CC1CNCC(C)(C(=O)c2cc3c(s2)C(=O)c2ncccc2C3=O)C1 (stereo not drawn) [Example 39, 2-[(3,5-dimethylpiperidin-5-yl)carbonyl]thieno[3,2-g]quinoline-4,9-dione] | 0.38 µM | 0.45 µM | 3.71 µM | 0.35 µM | 0.55 µM | 0.09 µM | –

Continued by falling IC50 (HCT-116 cells [1]; [7]), values first:

Row | IC50 (HCT-116 cells [1]; [7]) | IC50 (FaDu cells [2]; [8]) | IC50 (HT-29 cells [3]; [9]) | IC50 (HCT-116 cells [4]; [10]) | IC50 (HT-29 cells [5]; [11]) | IC50 (FaDu cells [6]; [12]) | SMILES | other results
11 | 0.47 µM | 0.17 µM | 0.59 µM | 0.26 µM | 0.58 µM | 0.47 µM | CC(=O)c1cc2c(o1)C(=O)c1ncccc1C2=O [Example 50, 2-acetylfuro[3,2-g]quinoline-4,9-dione] | –
12 | 0.47 µM | 0.09 µM | 0.63 µM | 0.57 µM | 0.59 µM | 0.08 µM | O=C1c2cnccc2C(=O)c2sc(CN(CC(F)F)C(=O)C3CCCCC3)cc21 [Example 28, N-(2,2-difluoroethyl)-N-((4,9-dioxo-4,9-dihydrothieno[2,3-g]isoquinolin-2-yl)methyl)cyclohexanecarboxamide] | –
13 | 0.4 µM | 0.36 µM | – | 0.51 µM | – | 0.4 µM | CCN(Cc1ccncc1)Cc1cc2c(s1)C(=O)c1cccnc1C2=O [Example 7, 2-{[ethyl(pyridin-4-ylmethyl)amino]methyl}thieno[2,3-g]quinoline-4,9-dione] | IC50 (HT-29 cells [3]; [13]): 2.64 µM; IC50 (HT-29 cells [5]; [14]): 3.04 µM
14 | 0.39 µM | 0.33 µM | 0.93 µM | 0.2 µM | 0.63 µM | 0.41 µM | CCN(CCOC)Cc1cc2c(s1)C(=O)c1cccnc1C2=O [Example 6, 2-{[ethyl(2-methoxyethyl)amino]methyl}thieno[2,3-g]quinoline-4,9-dione] | –
15 | 0.28 µM | 0.06 µM | 0.84 µM | 0.05 µM | 0.63 µM | 0.36 µM | O=C1c2cc(CN3CCOCC3)sc2C(=O)c2nccnc21 [Example 59, 7-(morpholin-4-ylmethyl)thieno[2,3-g]quinoxaline-5,9-dione] | –
16 | 0.07 µM | 0.04 µM | 0.64 µM | 0.24 µM | 0.5 µM | 0.04 µM | COc1c2ccncc2c(OC)c2sc(C(C)O)cc12 (stereo not drawn) [Example 34, 1-(4,9-dimethoxythieno[3,2-g]isoquinolin-2-yl)ethanol] | –
17 | 0.07 µM | 0.06 µM | 0.64 µM | 0.05 µM | 0.08 µM | 0.43 µM | CC(=O)c1cc2c(o1)C(=O)c1sccc1C2=O [Example 52, 2-acetylthieno[3,2-f][1]benzofuran-4,8-dione] | –
18 | 0.06 µM | 0.06 µM | 0.62 µM | 0.06 µM | 0.49 µM | 0.08 µM | CC(O)c1cc2c(s1)C(=O)c1ncccc1C2=O (stereo not drawn) [Example 37, 2-(1-hydroxyethyl)thieno[3,2-g]quinoline-4,9-dione] | –
19 | 0.06 µM | 0.03 µM | 0.52 µM | 0.06 µM | 0.08 µM | 0.03 µM | CC(O)c1cc2c(o1)C(=O)c1ccncc1C2=O (stereo not drawn) [Example 45, 2-(1-hydroxyethyl)furo[2,3-g]isoquinoline-4,9-dione] | –
20 | 0.06 µM | 0.05 µM | 0.56 µM | 0.05 µM | 0.43 µM | 0.07 µM | CN(C)C(=O)c1cc2c(s1)C(=O)c1cccnc1C2=O [Example 3, N,N-dimethyl-4,9-dioxo-4,9-dihydrothieno[2,3-g]quinoline-2-carboxamide] | –
